Test results taken from patent US20220259193A1, “KCNT1 INHIBITORS AND METHODS OF USE” (Praxis Precision Medicines, Inc., priority 2019, published 2022).

Biological target: T1, KCNT1 (KNa1.1, Slack) (Homo sapiens, UniProt Q5JUK3)
T1 construct: expressed in transfected cells; host or cells: HEK-TREX (tetracycline-inducible HEK cell line)
T1 sequence (Q5JUK3 1-1230): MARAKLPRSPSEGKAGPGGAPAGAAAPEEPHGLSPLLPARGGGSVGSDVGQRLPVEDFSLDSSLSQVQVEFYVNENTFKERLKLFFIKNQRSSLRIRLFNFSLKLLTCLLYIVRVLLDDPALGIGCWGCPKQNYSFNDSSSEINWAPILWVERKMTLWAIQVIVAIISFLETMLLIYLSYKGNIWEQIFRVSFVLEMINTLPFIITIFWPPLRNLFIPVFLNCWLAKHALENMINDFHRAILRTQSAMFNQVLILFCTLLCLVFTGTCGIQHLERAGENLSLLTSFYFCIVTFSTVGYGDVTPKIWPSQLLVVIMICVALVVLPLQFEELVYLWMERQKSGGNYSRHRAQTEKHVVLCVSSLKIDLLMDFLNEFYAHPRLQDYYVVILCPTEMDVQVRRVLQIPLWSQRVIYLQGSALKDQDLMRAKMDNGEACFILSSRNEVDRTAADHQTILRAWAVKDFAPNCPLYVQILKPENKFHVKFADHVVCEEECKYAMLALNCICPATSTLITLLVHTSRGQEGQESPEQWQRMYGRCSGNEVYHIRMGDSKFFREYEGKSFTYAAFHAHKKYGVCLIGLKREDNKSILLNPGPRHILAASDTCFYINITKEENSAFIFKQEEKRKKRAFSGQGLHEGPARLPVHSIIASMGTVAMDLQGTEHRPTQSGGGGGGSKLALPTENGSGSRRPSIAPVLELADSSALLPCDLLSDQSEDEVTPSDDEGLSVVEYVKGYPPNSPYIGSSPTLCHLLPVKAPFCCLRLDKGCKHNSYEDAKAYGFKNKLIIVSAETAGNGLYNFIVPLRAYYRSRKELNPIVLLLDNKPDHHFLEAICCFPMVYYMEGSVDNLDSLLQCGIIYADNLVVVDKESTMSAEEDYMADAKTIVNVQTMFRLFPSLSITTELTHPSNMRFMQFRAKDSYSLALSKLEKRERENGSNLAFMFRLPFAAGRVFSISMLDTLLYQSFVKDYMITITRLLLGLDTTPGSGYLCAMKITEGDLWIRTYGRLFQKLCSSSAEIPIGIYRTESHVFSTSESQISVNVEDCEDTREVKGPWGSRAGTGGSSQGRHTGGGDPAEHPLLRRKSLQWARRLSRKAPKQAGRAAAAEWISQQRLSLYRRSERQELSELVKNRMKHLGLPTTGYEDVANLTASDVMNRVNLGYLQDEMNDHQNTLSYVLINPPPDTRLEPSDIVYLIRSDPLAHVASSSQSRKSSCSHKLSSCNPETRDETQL
Experiment: KCNT1 patch clamp assay (SyncroPatch 384PE automated patch clamp)
Type: cell-based
Conditions: tetracycline inducible HEK-TREX cell line; perforated patch; step from −80 mV to 0 mV; room temperature; read-out: KCNT1-WT IC50
Outline: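 Tetracycline-inducible HEK-TREX cells; perforated-patch (10 μM escin) population recordings at room temperature, holding −80 mV with 100 ms step to 0 mV.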

| SMILES | IC50 [µM] |
| --- | --- |
| C[C@H](NC(=O)OC(C)(C)C)c1nc(-c2ccnc(OC3CC(F)(F)C3)c2)no1 [Compound 293, tert-butyl (S)-(1-(3-(2-(3,3-difluorocyclobutoxy)pyridin-4-yl)-1,2,4-oxadiazol-5-yl)ethyl)carbamate] | ≥ 20 |
| CC[C@H](NC(=O)c1cc(C(F)(F)F)nn1C)c1nc(-c2ccnc(C)c2)no1 [Compound 199, (S)-1-methyl-N-(1-(3-(2-methylpyridin-4-yl)-1,2,4-oxadiazol-5-yl)propyl)-3-(trifluoromethyl)-1H-pyrazole-5-carboxamide] | ≤ 1 |
| CC(NC(=O)c1cc(C2CC2)nn1C)c1nc(-c2c(F)cccc2F)no1 (centres unmarked) [Compound 7] | ≥ 20 |
| C[C@H](NC(=O)c1cc(C(F)(F)F)nn1C)c1nc(-c2ccnc(C(F)(F)F)n2)no1 [Compound 242, (S)-1-methyl-3-(trifluoromethyl)-N-(1-(3-(2-(trifluoromethyl)pyrimidin-4-yl)-1,2,4-oxadiazol-5-yl)ethyl)-1H-pyrazole-5-carboxamide] | 1 to 20 |
| CC(NC(=O)c1cc(C(F)(F)F)nn1C)c1nc(-c2cc(F)cc(F)c2)no1 (centres unmarked) [Compound 103] | ≤ 1 |
